Data reported in ChEMBL document CHEMBL4602715, “Efficacy and Tolerability of Pyrazolo[1,5-a]pyrimidine RET Kinase Inhibitors for the Treatment of Lung Adenocarcinoma” (ACS Med Chem Lett, 2020).
≈ marks a conversion by molar mass, not a printed value. Values belong to the compound of their own block, whether it stands above or below them. Calls of active or inactive are those of the source. The calls are words filed in the database; no cut-off is given here.

Assays:
[1] = Toxicity in Harlan Foxn1 nude mouse xenografted with rat RIE cells transfected with KIF5B/RET assessed as lungs hemorrhaging at 3 mg/kg, po administered bid for 8 days; type: organism-based; details: in vivo, 192 h
[2] = Toxicity in Harlan Foxn1 nude mouse xenografted with rat RIE cells transfected with KIF5B/RET assessed as hypothermia at 3 mg/kg, po administered bid for 8 days; type: organism-based; details: in vivo, 192 h
LC-2-ad = experiment: Cytotoxicity against human LC2/ad cells assessed as reduction in cell viability incubated for 6 days by CellTiter Glo assay; type: cell-based; details: 144 h
[3] = Oral bioavailability in BALB/c mouse at 10 mg/kg measured upto 24 hrs by LC-MS/MS analysis; type: ADME, organism-based; details: in vivo
[4] = Volume of distribution at steady state in BALB/c mouse at 2 mg/kg, iv measured upto 24 hrs by LC-MS/MS analysis; type: ADME, organism-based; details: in vivo, read-out: Vdss
[5] = Half life in BALB/c mouse at 10 mg/kg, po measured upto 24 hrs by LC-MS/MS analysis; type: ADME, organism-based; details: in vivo
[6] = molecular target: T1, Voltage-gated inwardly rectifying potassium channel KCNH2 (Homo sapiens, UniProt Q12809); experiment: Displacement of [3H]-dofetilide from human ERG expressed in CHO cells incubated for 90 mins by microbeta scintillation counting method; type: cell-based
T1 sequence (Q12809 whole entry): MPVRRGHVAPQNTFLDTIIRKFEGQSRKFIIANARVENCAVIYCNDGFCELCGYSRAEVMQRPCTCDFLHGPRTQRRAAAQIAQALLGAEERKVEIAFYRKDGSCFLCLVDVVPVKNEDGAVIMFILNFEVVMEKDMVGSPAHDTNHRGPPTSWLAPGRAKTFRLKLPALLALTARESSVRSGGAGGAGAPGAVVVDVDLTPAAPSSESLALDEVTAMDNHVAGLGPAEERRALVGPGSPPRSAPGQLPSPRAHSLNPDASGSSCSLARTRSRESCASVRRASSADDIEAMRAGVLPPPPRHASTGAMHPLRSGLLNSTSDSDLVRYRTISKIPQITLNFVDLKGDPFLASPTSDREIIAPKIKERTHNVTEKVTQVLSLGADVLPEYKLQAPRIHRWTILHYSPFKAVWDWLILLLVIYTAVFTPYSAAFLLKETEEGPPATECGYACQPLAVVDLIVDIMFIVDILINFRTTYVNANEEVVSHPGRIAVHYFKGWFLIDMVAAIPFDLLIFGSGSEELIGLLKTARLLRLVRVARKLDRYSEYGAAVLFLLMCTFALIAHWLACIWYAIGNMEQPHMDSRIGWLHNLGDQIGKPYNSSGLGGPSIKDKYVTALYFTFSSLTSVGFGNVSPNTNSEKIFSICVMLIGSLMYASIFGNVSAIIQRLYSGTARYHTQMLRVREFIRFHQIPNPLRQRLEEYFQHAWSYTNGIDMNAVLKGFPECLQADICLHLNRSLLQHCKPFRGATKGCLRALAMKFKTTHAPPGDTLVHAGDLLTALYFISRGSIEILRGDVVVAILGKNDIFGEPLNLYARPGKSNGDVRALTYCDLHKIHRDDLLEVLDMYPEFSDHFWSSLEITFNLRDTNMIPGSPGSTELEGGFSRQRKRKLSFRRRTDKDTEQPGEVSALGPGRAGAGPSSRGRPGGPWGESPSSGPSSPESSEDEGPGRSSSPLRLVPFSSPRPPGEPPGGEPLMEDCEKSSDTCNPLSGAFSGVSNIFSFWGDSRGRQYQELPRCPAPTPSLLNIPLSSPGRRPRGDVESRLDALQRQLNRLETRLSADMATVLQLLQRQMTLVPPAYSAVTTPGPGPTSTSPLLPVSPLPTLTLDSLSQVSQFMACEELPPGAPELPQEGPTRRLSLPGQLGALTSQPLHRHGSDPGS

[7] = Toxicity in Harlan Foxn1 nude mouse xenografted with rat RIE cells transfected with KIF5B/RET assessed as hypothermia at 10 to 60 mg/kg, po administered bid for 8 days; type: organism-based; details: in vivo, 192 h
[8] = Cmax in BALB/c mouse at 10 mg/kg, po measured upto 24 hrs by LC-MS/MS analysis; type: ADME, organism-based; set-up: dose 10 mg/kg, route oral; details: in vivo
[9] = Toxicity in Harlan Foxn1 nude mouse xenografted with rat RIE cells transfected with KIF5B/RET assessed as lungs hemorrhaging at 10 to 60 mg/kg, po administered bid for 8 days; type: organism-based; details: in vivo, 192 h
[10] = AUC in BALB/c mouse at 10 mg/kg, po measured upto 24 hrs by LC-MS/MS analysis; type: ADME, organism-based; set-up: dose 10 mg/kg, time < 24 hr, route oral; details: in vivo
[11] = Clearance in BALB/c mouse at 2 mg/kg, iv measured upto 24 hrs by LC-MS/MS analysis; type: ADME, organism-based; details: in vivo
[12] = molecular target: T1, Voltage-gated inwardly rectifying potassium channel KCNH2; experiment: Inhibition of human ERG expressed in human embryonic kidney cells by manual patch clamp assay; type: cell-based
[13] = AUC in BALB/c mouse at 2 mg/kg, iv measured upto 24 hrs by LC-MS/MS analysis; type: ADME, organism-based; set-up: dose 2 mg/kg, time < 24 hr, route intravenous; details: in vivo
[14] = Cmax in BALB/c mouse at 2 mg/kg, iv measured upto 24 hrs by LC-MS/MS analysis; type: ADME, organism-based; set-up: dose 2 mg/kg, route intravenous; details: in vivo
[15] = Half life in BALB/c mouse at 2 mg/kg, iv measured upto 24 hrs by LC-MS/MS analysis; type: ADME, organism-based; details: in vivo
[16] = AUC in BALB/c mouse at 5 mg/kg, iv measured upto 24 hrs by LC-MS/MS analysis; type: ADME, organism-based; set-up: dose 5 mg/kg, time < 24 hr, route intravenous; details: in vivo
[17] = Toxicity in CD-1 mouse assessed as changes in lung at 10 mg/kg, po qd for 4 weeks by histopathological analysis; type: organism-based; details: in vivo, 672 h
[18] = Clearance in BALB/c mouse at 5 mg/kg, iv measured upto 24 hrs by LC-MS/MS analysis; type: ADME, organism-based; details: in vivo
[19] = Aqueous solubility of compound at pH 6.8 incubated for 24 hrs by HPLC/UV analysis; type: physicochemical
[20] = Cmax in BALB/c mouse at 5 mg/kg, iv measured upto 24 hrs by LC-MS/MS analysis; type: ADME, organism-based; set-up: dose 5 mg/kg, route intravenous; details: in vivo
[21] = Toxicity in CD-1 mouse assessed as marginal zone depletion in spleen at 10 mg/kg, po qd for 4 weeks by histopathological analysis; type: organism-based; details: in vivo, 672 h
[22] = Half life in BALB/c mouse at 5 mg/kg, iv measured upto 24 hrs by LC-MS/MS analysis; type: ADME, organism-based; details: in vivo
[23] = Toxicity in CD-1 mouse assessed as decrease in germinal centre cellularity in lymph nodes at 10 mg/kg, po qd for 4 weeks by histopathological analysis; type: organism-based; details: in vivo, 672 h
[24] = Toxicity in CD-1 mouse assessed as changes in GI neurons at 10 mg/kg, po qd for 4 weeks by histopathological analysis; type: organism-based; details: in vivo, 672 h
[25] = Volume of distribution at steady state in BALB/c mouse at 5 mg/kg, iv measured upto 24 hrs by LC-MS/MS analysis; type: ADME, organism-based; details: in vivo, read-out: Vdss
[26] = Toxicity in CD-1 mouse assessed as neuronal changes in brain at 10 mg/kg, po qd for 4 weeks by histopathological analysis; type: organism-based; details: in vivo, 672 h
[27] = Toxicity in CD-1 mouse assessed as pancreatic vacuolation at 10 mg/kg, po qd for 4 weeks by histopathological analysis; type: organism-based; details: in vivo, 672 h
Rattus norvegicus [28] = experiment: Antitumor activity against rat RIE cells transfected with KIF5B/RET xenografted in Harlan Foxn1 nude mouse assessed as tumor regression at 30 mg/kg, po administered bid for 8 days; type: functional, organism-based
[29] = Cmax in BALB/c mouse at 20 mg/kg, po measured upto 24 hrs by LC-MS/MS analysis; type: ADME, organism-based; set-up: dose 20 mg/kg, route oral; details: in vivo
[30] = Half life in BALB/c mouse at 20 mg/kg, po measured upto 24 hrs by LC-MS/MS analysis; type: ADME, organism-based; details: in vivo
Rattus norvegicus [31] = experiment: Antitumor activity against rat RIE cells transfected with KIF5B/RET xenografted in Harlan Foxn1 nude mouse assessed as tumor stasis at 10 mg/kg, po administered bid for 8 days; type: functional, organism-based
[32] = Ratio of AUC in BALB/c mouse brain to plasma at 20 mg/kg, po measured upto 24 hrs by LC-MS/MS analysis; type: ADME, organism-based; details: brain and plasma
Mus musculus [33] = experiment: In vivo inhibition of KIF5B/RET transfected in rat RIE cells xenografted in Harlan Foxn1 nude mouse assessed as reduction in RET phosphorylation at 30 mg/kg, po administered bid for 8 days and measured on day 8 after 24 hrs of dosing by Western blot analysis; type: functional, organism-based
[34] = Drug uptake in plasma of Harlan Foxn1 nude mouse xenografted with rat RIE cells transfected with KIF5B/RET at 3 to 30 mg/kg, po administered bid for 8 days by LC-MS/MS analysis; type: ADME, organism-based; details: in vivo, 192 h
[35] = Ratio of Cmax in BALB/c mouse brain to plasma at 20 mg/kg, po measured upto 24 hrs by LC-MS/MS analysis; type: ADME, organism-based; details: brain and plasma
[36] = Oral bioavailability in BALB/c mouse at 20 mg/kg measured upto 24 hrs by LC-MS/MS analysis; type: ADME, organism-based; details: in vivo
[37] = AUC in BALB/c mouse at 20 mg/kg, po measured upto 24 hrs by LC-MS/MS analysis; type: ADME, organism-based; set-up: dose 20 mg/kg, time < 24 hr, route oral; details: in vivo
[38] = Drug uptake in tumor of Harlan Foxn1 nude mouse xenografted with rat RIE cells transfected with KIF5B/RET at 3 to 30 mg/kg, po administered bid for 8 days by LC-MS/MS analysis; type: ADME, organism-based, Neoplasm; details: in vivo, 192 h
Mus musculus [39] = experiment: In vivo inhibition of KIF5B/RET transfected in rat RIE cells xenografted in Harlan Foxn1 nude mouse assessed as reduction in RET phosphorylation at 30 mg/kg, po administered bid for 8 days and measured on day 8 after 5 hrs of dosing by Western blot analysis; type: functional, organism-based
[40] = Toxicity in Harlan Foxn1 nude mouse xenografted with rat RIE cells transfected with KIF5B/RET assessed as adverse events at 3 to 30 mg/kg, po administered bid for 8 days; type: organism-based; details: in vivo, 192 h
Rattus norvegicus [41] = experiment: Antitumor activity against rat RIE cells transfected with KIF5B/RET xenografted in Harlan Foxn1 nude mouse assessed as inhibition of tumor growth at 3 mg/kg, po administered bid for 8 days; type: functional, organism-based

bioavailability [3]: 62%
Vd [4]: 5.1 L/kg
half-life [5]: 3.7 h
Cmax [8]: 820 nM
AUC at 24 h [10]: 8.7 µM·h
clearance [11]: 19 mL/min/kg
AUC at 24 h [13]: 2.8 µM·h
Cmax [14]: 940 nM
half-life [15]: 3.7 h
Structure (SMILES): COC(=O)N1CCN(C(=O)c2ccc(-c3cnn4c(N)c(-c5ccccc5)c(NC5CC(C)(C)N(C)C(C)(C)C5)nc34)cc2)CC1
Activity [1]: Non-Toxic
Activity [2]: Non-Toxic
IC50 (LC-2-ad): 1.3 µM
IC50 [6]: 7.5 µM
Activity [7]: Toxic
Activity [9]: Toxic
IC50 [12]: Not Active

Structure (SMILES): COc1ccc(-c2cnn3c(N)c(-c4ccccc4)c(NC4CC(C)(C)N(C)C(C)(C)C4)nc23)cc1OC
AUC at 24 h [16]: 3.2 µM·h
IC50 (LC-2-ad): 1.5 µM
Activity [17]: Non-Toxic
clearance [18]: 51 mL/min/kg
solubility at 24 h [19]: 48 µM (≈ 24.7 µg/mL)
Cmax [20]: 1100 nM
Activity [21]: Toxic
half-life [22]: 3.9 h
Activity [23]: Toxic
Activity [24]: Non-Toxic
Vd [25]: 13 L/kg
Activity [26]: Non-Toxic
Activity [27]: Toxic

AUC at 24 h [16]: 2.6 µM·h
Cmax [29]: 880 nM
half-life [30]: 2.5 h
clearance [18]: 54 mL/min/kg
Kp at 24 h [32]: 0.15
Drug uptake [34]: Active
Cmax [20]: 1600 nM
Kp at 24 h [35]: 0.13
bioavailability [36]: 64%
AUC at 24 h [37]: 6.8 µM·h
Drug uptake [38]: Active
half-life [22]: 1.8 h
Vd [25]: 7.8 L/kg
Structure (SMILES): CN1C(C)(C)CC(Nc2nc3c(-c4ccc(C(=O)N5C[C@@H]6C[C@H]5CO6)cc4)cnn3c(N)c2-c2ccccc2)CC1(C)C
Activity (Rattus norvegicus [28]): Active
IC50 (LC-2-ad): 3.4 µM
Activity (Rattus norvegicus [31]): Active
IC50 [6]: 4.7 µM
inhibition (Mus musculus [33]): inactive
IC50 ([12]; read-out: IC50): 2.8 µM
inhibition (Mus musculus [39]): Active
Activity [40]: Non-Toxic
Activity (Rattus norvegicus [41]): Active
